Reference: PMC12300992, “A Machine Learning Platform for Isoform-Specific Identification and Profiling of Human Carbonic Anhydrase Inhibitors” (Pharmaceuticals, 2025)

Assays:
[1] = biological target: hCA IX (Homo sapiens, UniProt Q16790); experiment: CO2 hydrase stopped-flow inhibition assay, hCA IX; details: for experimental activity class hCA IX: Table S2, Ki threshold of 1 µM
Procedure: (§1) The ionic strength was maintained at a constant using 0.1 M Na2SO4 or NaClO4, as these anions are non-inhibitory at the concentration employed. […] Inhibitor stock solutions were prepared at a concentration of 10 mM in 1:1, v/v DMSO/water mixture and were subsequently diluted up to 0.01 nM in the assay buffer. To determine the inhibition constant (Ki), at least seven different inhibitor concentrations were tested. The enzyme and the inhibitor were pre-incubated for 15 min to allow the complete formation of the enzyme-inhibitor complex. Each inhibitor concentration was tested in triplicate, and the values reported throughout the study represent the mean of these replicates. […] These enzyme concentrations were measured by titration with ethoxzolamide and spectrophotometrically for CA I and II.

[2] = biological target: hCA II (Homo sapiens, UniProt P00918); experiment: CO2 hydrase stopped-flow inhibition assay, hCA II; details: for experimental activity class hCA II: Table S2, Ki threshold of 1 µM
Procedure: as §1

[3] = biological target: hCA XII (Homo sapiens, UniProt O43570); experiment: CO2 hydrase stopped-flow inhibition assay, hCA XII; details: for experimental activity class hCA XII: Table S2, Ki threshold of 1 µM
Procedure: as §1

[4] = biological target: hCA I (Homo sapiens, UniProt P00915); experiment: CO2 hydrase stopped-flow inhibition assay, hCA I; details: for experimental activity class hCA I: Table S2, Ki threshold of 1 µM
Procedure: as §1

[5] = tested on: bacterial DNA gyrase B; parameters: method as in PMID 20045642; details: cited from earlier work
[6] = tested on: α-amylase; parameters: method as in PMID 26395057; details: cited from earlier work
[7] = tested on: Z mutant (Glu342Lys) of α1-antitrypsin; parameters: method as in PMID 17918823; details: cited from earlier work

Chain of hCA XII (O43570 25-354): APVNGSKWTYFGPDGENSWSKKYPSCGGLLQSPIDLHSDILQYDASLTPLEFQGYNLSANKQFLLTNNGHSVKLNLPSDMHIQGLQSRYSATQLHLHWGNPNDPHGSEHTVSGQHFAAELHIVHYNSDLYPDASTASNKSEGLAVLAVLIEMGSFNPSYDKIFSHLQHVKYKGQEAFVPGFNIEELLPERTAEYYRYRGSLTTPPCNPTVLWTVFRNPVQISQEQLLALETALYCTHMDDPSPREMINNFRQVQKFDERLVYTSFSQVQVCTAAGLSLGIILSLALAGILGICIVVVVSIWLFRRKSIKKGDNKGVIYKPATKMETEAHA
Chain of hCA I (P00915 whole entry): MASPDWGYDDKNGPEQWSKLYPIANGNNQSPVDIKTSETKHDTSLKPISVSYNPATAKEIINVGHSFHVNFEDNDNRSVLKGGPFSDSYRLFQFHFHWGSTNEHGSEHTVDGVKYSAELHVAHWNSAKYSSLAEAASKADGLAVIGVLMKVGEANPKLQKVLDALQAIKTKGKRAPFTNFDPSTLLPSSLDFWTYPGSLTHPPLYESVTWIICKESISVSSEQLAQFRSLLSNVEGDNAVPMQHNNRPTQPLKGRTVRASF

| SMILES | Ki [1] | experimental activity class hCA IX [1] | Ki [2] | experimental activity class hCA II [2] | Ki [3] | experimental activity class hCA XII [3] | Ki [4] | experimental activity class hCA I [4] | bacterial DNA gyrase B inhibition [5] | inhibitory activity against α-amylase [6] | effect on rate of polymerization of Z α1-antitrypsin [7] | selectivity for hCA II over hCA I ([2]; hCA II vs hCA I) |
| --- | --- | --- | --- | --- | --- | --- | --- | --- | --- | --- | --- | --- |
| O=C(Nn1cnnc1)c1cccc(S(=O)(=O)Nc2cc(C(F)(F)F)ccc2Cl)c1 [Compound 3] | > 100000 nM | Inactive | > 100000 nM | Inactive | > 100000 nM | Inactive | > 100000 nM | Inactive | – | – | – | – |
| CCOc1ccccc1C(=O)Nc1nc2ccc(S(N)(=O)=O)cc2s1 [Compound 11] | 73.7 nM | Active | 16.4 nM | Active | 49.4 nM | Active | 666 nM | Active | – | – | – | – |
| NS(=O)(=O)c1ccc(CCNC(=O)C/C=C2/NC(=O)c3c(sc4c3CCCC4)N2)cc1 [Compound 2] | 713 nM | Active | 11.6 nM | Active | 30.6 nM | Active | 1020 nM | Inactive | – | – | – | – |
| NS(=O)(=O)c1ccc(Nc2nc(-c3ccc(O)cc3O)cs2)cc1 [Compound 12] | 313 nM | Active | 151 nM | Active | 648 nM | Active | 1080 nM | Inactive | inhibitor | promising inhibitory activity | reduce the rate of polymerization | – |
| NS(=O)(=O)c1ccc(OCCn2ccnc2)cc1 [Compound 4] | 2520 nM | Inactive | 6.8 nM | Active | 603 nM | Active | 36.2 nM | Active | – | – | – | approximately five times more active |
| O=S(=O)(Nc1cccc(C(F)(F)F)c1)c1cc(Cl)ccc1Cl [Compound 10] | > 100000 nM | Inactive | > 100000 nM | Inactive | > 100000 nM | Inactive | 31600 nM | Inactive | – | – | – | – |
